Legend:
Format in all cases: biochemical
Gox0313 = biological target: T1, Gox0313 (Gluconobacter oxydans, UniProt Q5FU50); assay: Enzyme activity assay (rate of NAD(P)H decrease at 340 nm), Gox0313; conditions: Tab. 6, Gox0313; substrate reduction, cofactor NADH; 10 mM substrate, pH 7.0, 30 °C
T1 sequence (Q5FU50 1-343): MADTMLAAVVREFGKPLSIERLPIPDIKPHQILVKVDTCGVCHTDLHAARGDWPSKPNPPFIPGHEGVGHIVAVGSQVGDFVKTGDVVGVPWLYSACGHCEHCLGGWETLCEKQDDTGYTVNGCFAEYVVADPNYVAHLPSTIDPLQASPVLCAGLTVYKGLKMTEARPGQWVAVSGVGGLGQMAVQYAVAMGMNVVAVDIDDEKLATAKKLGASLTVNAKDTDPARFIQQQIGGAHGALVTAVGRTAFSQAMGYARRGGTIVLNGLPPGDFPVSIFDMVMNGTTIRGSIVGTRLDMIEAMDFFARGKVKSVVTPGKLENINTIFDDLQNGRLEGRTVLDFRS
Procedure: (§1) Measurment of enzyme activity: NADPH-dependent alpha-ketocarbonyl reductases were assayed by a routine method used for NAD(P)-linked enzymes by recording the rate of decrease of NADPH at 340 nm (ε = 6.22 mM^-1 x cm^-1)) with substrates at 30 °C. The reaction mixture (1 ml) for reduction of alpha-ketocarbonyl substrates contained 10 mM substrate, 40 mM potassium phosphate buffer pH 7.0, 0.025 mM NAD(P)H , and the enzyme. Reactions were induced by addition of enzyme or substrate. One unit of enzyme activity was defined as the amount of enzyme catalyzing the conversion of 1 µmol of pyridine nucleotide per min at 30 °C.
(§2) NADPH-dependent α-ketocarbonyl reductases were assayed by a routine method used for NAD(P)-linked enzymes by recording the rate of decrease of NADPH at 340 nm (ε = 6.22 mM^-1.cm^-1) with substrates at 30 °C. The reaction mixture (1 ml) for reduction of alpha-ketocarbonyl substrates contained 10 mM substrate, 40 mM potassium phosphate buffer pH 7.0, 0.025 mM NADPH , and the enzyme. Reactions were induced by addition of enzyme or substrate. One unit of enzyme activity was defined as the amount of enzyme catalyzing the conversion of 1 µmol of pyridine nucleotide per min at 30 °C.
(§3) For each enzyme (Gox0313, Gox0502, Gox0644, Gox0646, Gox1615, Gox2107, and Gox2684 respectively), fresh enzyme preparations were used to validate the substrate spectrum and the kinetic activity. […] Purified NAD(P)-dependent oxidoreductases were assayed at 30 °C by a routine method used for NAD(P)-linked enzymes by recording the rate of decrease of NAD(P)H at 340 nm (ε = […]) with substrates capable of reduction reactions. The standard reaction mixture (1 ml) for the reduction reactions of substrates contained 10 mM substrate, 40 mM potassium phosphate buffer (K-phosphate buffer) pH 7.0, 0.05 mM NAD(P)H, and the enzyme unless otherwise noted. Reactions were induced by addition of enzyme or substrate. One unit of enzyme activity was defined as the amount of enzyme catalyzing the conversion of 1 µmol of pyridine nucleotide per min at 30 °C. Measurement of the protein content was performed by the method of Bradford in Anal. Biochem. 72:248-254 (1976). Table 3: Summary of enzymatic activities with α-diketones, α-ketoaldehydes and /or α-ketoesters

Gox1615 = biological target: T2, Gox1615 (Gluconobacter oxydans, UniProt Q5FQJ0); assay: Enzyme activity assay (rate of NAD(P)H decrease at 340 nm), Gox1615; conditions: Tab. 5, Gox1615; cofactor NADPH; 10 mM substrate, pH 7.0, 30 °C
T2 sequence (Q5FQJ0 1-332): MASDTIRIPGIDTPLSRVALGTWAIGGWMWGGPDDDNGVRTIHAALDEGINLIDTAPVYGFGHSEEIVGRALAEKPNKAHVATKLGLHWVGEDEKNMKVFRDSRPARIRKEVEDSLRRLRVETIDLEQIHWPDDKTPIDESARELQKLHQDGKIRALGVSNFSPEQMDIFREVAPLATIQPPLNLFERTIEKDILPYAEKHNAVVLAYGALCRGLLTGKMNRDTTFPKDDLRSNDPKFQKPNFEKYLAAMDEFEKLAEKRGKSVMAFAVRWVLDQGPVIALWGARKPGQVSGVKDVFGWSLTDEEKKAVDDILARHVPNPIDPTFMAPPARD
Procedure: as §1, §2, §3

Gox2107 = Gox2107 (Gluconobacter oxydans, UniProt Q5FP53); assay: Enzyme activity assay (rate of NAD(P)H decrease at 340 nm), Gox2107; conditions: for Specific Activity: Tab. 7, Gox2107, cofactor NADPH, 10 mM substrate, pH 7.0, 30 °C
Procedure: as §1, §2, §3

Gox0502 = biological target: T3, Gox0502 (Gluconobacter oxydans, UniProt Q5FTL6); assay: Enzyme activity assay (rate of NAD(P)H decrease at 340 nm), Gox0502; set-up: Strep-tag II (N); made in house; host or cells: E. coli BL21 or E. coli DH5α (pASK-IBA5); conditions: Tab. 7, Gox0502; cofactor NADPH; 10 mM substrate, pH 7.0, 30 °C
T3 sequence (Q5FTL6 1-361): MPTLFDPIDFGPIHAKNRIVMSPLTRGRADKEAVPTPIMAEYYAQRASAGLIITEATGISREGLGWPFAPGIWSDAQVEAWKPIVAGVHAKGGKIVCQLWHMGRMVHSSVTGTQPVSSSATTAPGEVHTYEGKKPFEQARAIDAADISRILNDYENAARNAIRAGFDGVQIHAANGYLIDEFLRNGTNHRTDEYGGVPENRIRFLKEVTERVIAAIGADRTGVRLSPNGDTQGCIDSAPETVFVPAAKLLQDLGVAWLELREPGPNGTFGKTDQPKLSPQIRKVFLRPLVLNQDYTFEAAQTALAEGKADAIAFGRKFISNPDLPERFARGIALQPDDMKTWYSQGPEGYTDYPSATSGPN
Procedure: as §1, §2, §3

Gox2684 = biological target: T4, Gox2684 (Gluconobacter oxydans, UniProt Q5HXK5); assay: Enzyme activity assay (rate of NAD(P)H decrease at 340 nm), Gox2684; conditions: Tab. 8, GOX2684; cofactor NADPH; 10 mM substrate, pH 7.0, 30 °C
T4 sequence (Q5HXK5 1-357): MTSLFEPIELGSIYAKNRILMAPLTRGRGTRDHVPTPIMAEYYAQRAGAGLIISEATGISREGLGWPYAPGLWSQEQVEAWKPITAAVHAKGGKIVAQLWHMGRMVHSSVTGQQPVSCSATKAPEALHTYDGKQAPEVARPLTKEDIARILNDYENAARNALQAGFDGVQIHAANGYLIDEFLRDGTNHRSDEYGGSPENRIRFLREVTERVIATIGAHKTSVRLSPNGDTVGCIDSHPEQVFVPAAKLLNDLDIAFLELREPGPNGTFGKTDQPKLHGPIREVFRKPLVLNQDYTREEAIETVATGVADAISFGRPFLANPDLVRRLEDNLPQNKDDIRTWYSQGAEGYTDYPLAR
Procedure: as §1, §2, §3

Gox0644 = Gox0644 (Gluconobacter oxydans, UniProt Q5FT75); assay: Enzyme activity assay (rate of NAD(P)H decrease at 340 nm), Gox0644; conditions: for reduction by Gox0644 (result in words): NADPH; for Specific Activity: Tab. 4, Gox0644, cofactor NADPH, 10 mM substrate, pH 7.0, 30 °C
Procedure: (§4) Reactions were induced by addition of enzyme or substrate. One unit of enzyme activity was defined as the amount of enzyme catalyzing the conversion of 1 µmol of pyridine nucleotide per min at 30 °C.
as §4
For each enzyme (Gox0313, Gox0502, Gox0644, Gox0646, Gox1615, Gox2107, and Gox2684 respectively), fresh enzyme preparations were used to validate the substrate spectrum and the kinetic activity. […] Reactions were induced by addition of enzyme or substrate. One unit of enzyme activity was defined as the amount of enzyme catalyzing the conversion of 1 µmol of pyridine nucleotide per min at 30 °C. […] Table 3: Summary of enzymatic activities with α-diketones, α-ketoaldehydes and /or α-ketoesters

| Compound | Specific Activity (Gox0313) [U/mg] | Specific Activity (Gox1615) [U/mg] | also measured |
| --- | --- | --- | --- |
| O=CC(O)CO (racemic) [DL-glyceraldehyde] | 1.2 | 19 |  |
| C=CC(=O)CC [1-pentene-3-one] |  |  | Specific Activity (Gox2107): 14.0 U/mg; Specific Activity (Gox0502): 6.1 U/mg |
| O=C1C=CCCC1 [2-cyclohexene-1-one] |  |  | Specific Activity (Gox2107): 3.3 U/mg; Specific Activity (Gox0502): 9.8 U/mg |
| O=C1C=C(O)C(=O)c2ccccc21 [2-hydroxy-1,4-naphthoquinone] |  |  | Specific Activity (Gox2107): 16.04 U/mg; Specific Activities (Gox2684): 0.7 U/mg; Specific Activity (Gox0502): 0.75 U/mg |
| CC1=CC(=O)c2ccccc2C1=O [2-methyl-1,4-naphthoquinone] |  |  | Specific Activity (Gox2107): 124.1 U/mg; Specific Activities (Gox2684): 6.8 U/mg; Specific Activity (Gox0502): 10 U/mg |
| C=C(C)[C@H]1CC=C(C)C(=O)C1 [(+)-Carvone] |  |  | Specific Activity (Gox2107): < 0.1 U/mg; Specific Activity (Gox0502): 8.0 U/mg |
| N#CC1=C(C#N)C(=O)C(Cl)=C(Cl)C1=O [DDQ] |  |  | Specific Activity (Gox2107): 26.5 U/mg; Specific Activity (Gox0502): < 0.1 U/mg |
| NC(=O)C1=CN([C@@H]2O[C@H](COP(=O)(O)OP(=O)(O)OC[C@H]3O[C@@H](n4cnc5c(N)ncnc54)[C@H](O)[C@@H]3O)[C@@H](O)[C@H]2O)C=CC1 [NADH] |  |  | decrease in activity with NADH (Gox2107; Gox2107, NADH compared with the preferred NADPH (data not shown)): 7.5 fold |
| CC=O [acetaldehyde] | 61.0 |  |  |
| CC(C)=O [acetone] |  |  | reduction by Gox0644 (result in words) (Gox0644): not reduced |
| CC(=O)CC(C)=O [acetylacetone] |  |  | reduction by Gox0644 (result in words) (Gox0644): not reduced |
| O=Cc1ccccc1 [benzaldehyde] | 9.4 | 12.2 |  |
| O=C(C(=O)c1ccccc1)c1ccccc1 [benzil] | 0.1 |  | Specific Activity (Gox0644): 14.0 U/mg |
| CCCC=O [butyraldehyde] | 8.5 | 14 |  |
| O=CC=Cc1ccccc1 [cinnamaldehyde] | 7.0 |  | Specific Activities (Gox2684): 0.4 U/mg |
| O=CCCCC=O [glutaraldehyde] |  | 13.5 |  |
| O=CC=O [glyoxal] |  | 5 | Specific Activity (Gox0644): 1.1 U/mg |
| O=CC(=O)O [glyoxalate] |  |  | Specific Activity (Gox0644): 1.2 U/mg |
| O=CCCc1ccccc1 [hydrocinnamaldehyde] | 32.1 |  | Specific Activities (Gox2684): 1.9 U/mg |
| Cc1cccc(C=O)c1 [m-toluylaldehyde] |  | 1.5 |  |
| Cc1ccc(C=O)cc1 [p-toluylaldehyde] | 3.3 | 2.3 |  |
| O=CCc1ccccc1 [phenylacetaldehyde] |  | 6.5 |  |
| glucose | 4.7 |  |  |
| mannose | 9.7 |  |  |

The next lines start with results.

| Specific Activity (Gox0313) [U/mg] | Specific Activity (Gox1615) [U/mg] | Compound | also measured |
| --- | --- | --- | --- |
|  | 13.4 | CCCC(C)C=O (centres unmarked) [2-methylvaleraldehyde] |  |
| 1.5 | 0.5 | CC=CC(C)=O [3-penten-2-one] | Specific Activity (Gox2107): 1.9 U/mg; Specific Activities (Gox2684): 1.9 U/mg; Specific Activity (Gox0502): 3.6 U/mg |
|  | 0.3 | CC(=O)C=CC(C)C [5-methyl-3-hexen-2-one] |  |
| 4.4 | 9.3 | CCCCCCCCC=O [Nonal] |  |
| 10.5 |  | CC(=O)C(C)O (centres unmarked) [acetoin] | reduction by Gox0644 (result in words) (Gox0644): not reduced |
| 18.8 | 10.5 | CCCCCCCCCC=O [decanal] |  |
| 2.4 | 15.6 | CCCCCCCCCCCC=O [dodecanal] |  |
| 37.5 | 4.1 | O=CCO [glycolaldehyde] |  |
| 8.6 | 15.5 | CCCCCCC=O [heptanal] |  |
| 6.0 | 10.3 | CCCCCC=O [hexanal] |  |
|  | 12 | CC(C)CC=O [isovaleraldehyde] |  |
|  | 0.8 | Cc1ccccc1C=O [o-toluylaldehyde] |  |
| 1.5 | 5.3 | CCCCCCCC=O [octanal] |  |
| 15.0 | 8.4 | CCC=O [propionaldehyde] |  |
| 8.5 | 7.5 | CCCCCCCCCCC=O [undecylaldehyde] |  |
| 8.9 | 15.1 | CCCCC=O [valeraldehyde] |  |

From patent EP2119770B1, “Production of alpha-oxyfunctionalized carbonyl compounds” (priority 2008, dated 2009)
